Source: article PMC3809513, “Imidazopyridazines as potent inhibitors of Plasmodium falciparum calcium-dependent protein kinase 1 (PfCDPK1): Preparation and evaluation of pyrazole linked analogues^” (Bioorganic & Medicinal Chemistry Letters, 2013)
Read-outs that look alike come from different tables or passages of the source.

Tests used:
[1] = set-up: method as in PMID 23570789; conditions: % remaining after 30 min incubation with human liver microsomes; cited from earlier work
P. falciparum [2] = test system: P. falciparum; set-up: method as in PMID 23570789; conditions: reference compound 2; read-out: Pf EC50; cited from earlier work
[3] = set-up: method as in PMID 23570789; conditions: % remaining after 30 min incubation with mouse liver microsomes; cited from earlier work
PfCDPK1 = PfCDPK1 (Plasmodium falciparum, UniProt P62344); test: PfCDPK1 enzyme inhibition; assay type: biochemical; conditions: for LLE: LLE = pIC50 − m Log D
Chain of PfCDPK1 (P62344 whole entry): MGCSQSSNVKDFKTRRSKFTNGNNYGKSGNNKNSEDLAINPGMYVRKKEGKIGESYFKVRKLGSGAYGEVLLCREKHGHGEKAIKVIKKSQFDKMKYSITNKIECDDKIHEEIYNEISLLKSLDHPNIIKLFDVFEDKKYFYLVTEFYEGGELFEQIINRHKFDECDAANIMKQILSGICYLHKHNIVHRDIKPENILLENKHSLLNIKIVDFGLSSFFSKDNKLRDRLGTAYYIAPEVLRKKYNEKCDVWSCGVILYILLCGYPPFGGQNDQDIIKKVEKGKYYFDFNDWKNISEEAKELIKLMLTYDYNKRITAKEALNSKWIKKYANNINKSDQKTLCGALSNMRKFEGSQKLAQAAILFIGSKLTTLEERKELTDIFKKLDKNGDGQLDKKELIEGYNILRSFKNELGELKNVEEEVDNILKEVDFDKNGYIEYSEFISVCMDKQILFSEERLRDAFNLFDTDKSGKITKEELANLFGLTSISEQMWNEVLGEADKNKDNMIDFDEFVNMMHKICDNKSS

[4] = Microsomal turnover, mouse liver microsomes; assay type: in vitro ADME; conditions: % remaining after 30 min, 1 μM compound
Protocol: (§1) Microsomal turnover data was obtained using either human liver microsomes (HLM) or mouse liver microsomes (MLM) obtained from BD Biosciences. The compounds are pre-incubated at 37 °C for 5 minutes with the microsomes and the reaction was initiated by adding an equal volume of NADPH generating solution, also obtained from BD Biosciences. The final compound concentration in the incubation is 1 μM, and the microsomal protein concentration is 0.5 mg/ml for HLM and 0.2 mg/ml for MLM. A sample is taken at t=0 and quenched with 2x volume of ice-cold methanol containing an internal standard reference compound (carbamazepine). The reaction is agitated at 37 °C for 40 minutes (HLM) and 30 minutes (MLM) when a further sample was taken and quenched in an identical fashion. The samples were centrifuged at 10000 rpm for 10 minutes and the supernatant taken for analysis in triplicate by LC-MS/MS (Agilent Technologies G6410 series, triple quadrupole with MM-ESI ion source) using optimised multiple reaction monitoring (MRM) scans and a standard column gradient on an Acquity UPLC BEH C8 1.7μm column, running acetonitrile and water with 0.05% acetic acid as the mobile phase. The % turnover is obtained by calculating the percentage difference of the peak areas, normalised to the internal standard, at t=0 and t=40 (for human) or t=30 (for mouse). Verapamil is used as the standard compound for this assay.

P. falciparum [5] = test: P. falciparum parasite growth assay (FACS, hydroethidine); assay type: cell-based, Plasmodium falciparum; conditions: in vitro parasite growth, compounds added 24 h post-invasion, cells recovered 48 h later; for EC50: Plasmodium falciparum, read-out: Pf EC50
Protocol: [12] P. falciparum EC50 values were measured using an in vitro model of malaria parasite growth. Compounds were diluted into 2% DMSO and added to parasites 24 h post-invasion in a 96-well plate and incubated under static conditions. Cells were recovered 48 h later and processed for FACS analysis using hydroethidine to stain parasite DNA. Data was acquired using a Guava easyCyte Plus flow cytometer with ExpressPro software. Growth inhibition was calculated using the following formula: % growth inhibition = (1 − [parasitaemia of culture/parasitaemia of control culture]) × 100.

[6] = Microsomal turnover, human liver microsomes; assay type: in vitro ADME; conditions: % remaining after 30 min, 1 μM compound
Protocol: as §1, with “The reaction is agitated at 37 °C for 40 minutes (HLM) and 30 minutes (MLM) when a further sample was taken and quenched in an identical fashion.” left out, “The % turnover is obtained by calculating the percentage difference of the peak areas, normalised to the internal standard, at t=0 and t=40 (for human) or t=30 (for mouse).” left out

[7] = target: 73-member human kinase panel; test: Kinase selectivity profiling against human kinase panel; assay type: biochemical; conditions: 73-member human kinase panel at 1 μM concentration; green <50%, orange 50–80%, red >80% inhibition in Figure 2
Text: They also display key ADME properties which serve to complement analogues such as 2, where a 6-membered aryl or heteroaryl ring linker had been used (Table 5). As expected, the pyrazole linker has contributed to lowering log D in these new analogues, and perhaps more importantly has promoted a significant increase in ligand lipophilic efficiency (LLE)[22] as compared to compounds such as 2. This parameter is well-known to offer a useful guide to potency and lipophilicity during the progression of chemical series from hits towards leads. In addition, we observed promising kinase selectivity profiles for key examples on screening against a human kinase panel at 1 μM concentration,[23] as shown in Figure 2. The aryl pyrazoles described here thus represent a useful additional possibility for progressing towards alternative early lead compounds with good development characteristics.
[23] Kinase selectivity profiling was carried out by the National Centre for Protein Kinase Profiling at the MRC Protein Phosphorylation Unit (University of Dundee, UK).

[8] = LogD shake flask (octanol/PBS); assay type: physicochemical; conditions: measured log D
Protocol: LogD measurements were carried out using the shake flask method. Compound was diluted from 10 mM DMSO stock solution into an eppendorf containing equal amounts of octanol and phosphate buffered saline (PBS) to give a final concentration of 100 μM. The tubes were shaken for 12 hours, centrifuged at 10000 rpm for 10 minutes and samples taken from the octanol and PBS layers. The samples from both layers were analysed in triplicate by LC-MS/MS (Agilent Technologies G6410 series, triple quadrupole with MM-ESI ion source) using optimised multiple reaction monitoring (MRM) scans and a standard column gradient on an Acquity UPLC BEH C8 1.7 μm column, running acetonitrile and water with 0.05% Acetic Acid as the mobile phase. The ratios of areas of the peaks were used to calculate the LogD in accordance with the equation: LogD = Log10(Area-TL/Area BL)

[9] = PAMPA passive permeability; assay type: in vitro ADME; conditions: 5 hours at room temperature
Protocol: PAMPA assays were carried out using a 96 well BD Biosciences pre-coated PAMPA plate with 0.4 μm polyvinylidene fluoride filter plate, precoated with structured layers of phospholipids. […] The compound solution was placed in the lower ‘Donor’ well of the plate and the upper ‘Acceptor’ well of the plate was filled with PBS:DMSO 98:2 buffer containing no compound following which the plates was assembled then incubated for 5 hours at room temperature. After incubation the Donor and Acceptor wells were sampled into flat UV bottomed plates and a six fold 1:2 dilution series created for each compound starting at the appropriate top concentration for each compound. The UV absorbance for these solutions was read across 230-400 nm at 1 nm intervals using a TECAN Safire II plate reader and a suitable UV wavelength chosen around the UV maximum of each compound. This was used to calculate the concentration in the Donor and Acceptor wells for each compound. The compound permeability Papp (nm s^-1) and % mass retention was then calculated for each compound in accordance with the following equations:
Ceq = [CD(t)* VD+ CA(t)*VA]/(VD+VA)
% mass retention = 1 – [CD(t)*VD + CA(t)*VA]/(C0*VD)]
A = Filter Area, VD = Donor Well Volume, VA = Acceptor Well Volume, t = incubation time (secs), CA(t) = Acceptor concentration at time t, CD(t) = Donor concentration at time t, C0 = Initial Donor concentration
No result was reported for compounds where % mass retention exceeded 50%.

## CC(C)CCNc1ccc(-c2cnc3ccc(NC4CCN(C)CC4)nn23)cn1 [Compound 2]
[1]
  HLM % rem: 63%
P. falciparum [2]
  EC50: 400 nM
[3]
  MLM % rem: 85%

## Cc1nn(-c2ccccc2)cc1-c1cnc2ccc(NC3CCN(C)CC3)nn12 [Compound 11]
PfCDPK1
  IC50: 3610 nM

## c1ccc(-n2cc(-c3cnc4ccc(NC5CCNCC5)nn34)cn2)cc1 [Compound 12]
[4]
  MLM % rem: 74%
P. falciparum [5]
  EC50: 985 nM
  Pf EC50: sub-micromolar
[6]
  HLM % rem: 81%
PfCDPK1
  IC50: 43 nM
  LLE: 4.5
PfCDPK1; from PfCDPK1 potency
  LE (ligand efficiency): 0.37
[7]
  Kinases inhibited: PRK2, PKD1, MSK1, MNK1, SmMLCK, CHK1, CHK2, Aurora B, NUAK1, PIM1, GCK, MINK1, MLK1, MLK3, IRAK4, SRC, LCK, YES1, EPH-A2, FGF-R1, HER4, VEG-FR
[8]
  logD at 12 h, 100 µM: 1.8
[9]
  Papp at 5 h, up to 200 µM: 2.3 ×10⁻⁶ cm/s

## CN1CCC(Nc2ccc3ncc(-c4cnn(-c5ccccc5F)c4)n3n2)CC1 [Compound 16]
P. falciparum [5]
  EC50: 567 nM
PfCDPK1
  IC50: 76 nM
[8]
  logD at 12 h, 100 µM: 3.4

## CN1CCC(Nc2ccc3ncc(-c4cnn(-c5ncc(F)cn5)c4)n3n2)CC1 [Compound 25]
PfCDPK1
  IC50: 486 nM
[8]
  logD at 12 h, 100 µM: 2

## CN1CCC(Nc2ccc3ncc(-c4cnn(-c5cnccn5)c4)n3n2)CC1 [Compound 26]
[4]
  MLM % rem: 51%
P. falciparum [5]
  EC50: 366 nM
[6]
  HLM % rem: 66%
PfCDPK1
  IC50: 31 nM
[8]
  logD at 12 h, 100 µM: 2.2
[9]
  Papp at 5 h, up to 200 µM: 0.05 ×10⁻⁶ cm/s

## Clc1ccc2ncc(Br)n2n1 [Compound 27]
[7]
  Kinases inhibited: RSK1, PRK2, CHK1, MELK, NUAK 1, PIM1, MST2, GCK, MINK1, MLK1, MLK3, IRAK4, SRC, LCK, CSK, YES1, BTK, EPH-A2, EPH-B3, HER4, VEG-FR

## N[C@H]1CC[C@H](Nc2ccc3ncc(-c4cnn(-c5ccc(F)cc5)c4)n3n2)CC1 [Compound 29]
[4]
  MLM % rem: 84%
P. falciparum [5]
  EC50: 262 nM
[6]
  HLM % rem: 80%
PfCDPK1
  IC50: 56 nM
  LLE: 5.3
[8]
  logD at 12 h, 100 µM: 1.9
[9]
  Papp at 5 h, up to 200 µM: 4.3 ×10⁻⁶ cm/s

## Fc1ccc(-n2cc(-c3cnc4ccc(N[C@H]5CC[C@H](N6CCCC6)CC5)nn34)cn2)cc1 [Compound 30]
[4]
  MLM % rem: 66%
P. falciparum [5]
  EC50: 373 nM
[6]
  HLM % rem: 42%
PfCDPK1
  IC50: 129 nM
[8]
  logD at 12 h, 100 µM: 2.8
[9]
  Papp at 5 h, up to 200 µM: 10.4 ×10⁻⁶ cm/s

## CN1CCC(Oc2ccc3ncc(-c4cnn(-c5ccc(F)cc5)c4)n3n2)CC1 [Compound 31]
[4]
  MLM % rem: 38%
[6]
  HLM % rem: 61%
PfCDPK1
  IC50: 184 nM
[8]
  logD at 12 h, 100 µM: 2.6
[9]
  Papp at 5 h, up to 200 µM: 21.4 ×10⁻⁶ cm/s

## Fc1ccc(-n2cc(-c3cnn4ccc(C5CCCNC5)nc34)cn2)cc1 (centres unmarked) [Compound 34]
[4]
  MLM % rem: 56%
P. falciparum [5]
  EC50: 3830 nM
[6]
  HLM % rem: 80%
PfCDPK1
  IC50: 176 nM
[8]
  logD at 12 h, 100 µM: 1.4
[9]
  Papp at 5 h, up to 200 µM: 21.7 ×10⁻⁶ cm/s

## CN1CCCC(c2ccn3ncc(-c4cnn(-c5ccc(F)cc5)c4)c3n2)C1 (centres unmarked) [Compound 35]
[4]
  MLM % rem: 33%
P. falciparum [5]
  EC50: 3540 nM
[6]
  HLM % rem: 55%
PfCDPK1
  IC50: 378 nM
[8]
  logD at 12 h, 100 µM: 2.5

## CN1CCC(Nc2ccc3ncc(-c4cnn(-c5ccc(C#N)cc5)c4)n3n2)CC1 [Compound 36]
[4]
  MLM % rem: 59%
[6]
  HLM % rem: 79%
PfCDPK1
  IC50: 854 nM
[7]
  Kinases inhibited: RSK1, ROCK2, PRK2, MNK1, MNK2, SmMLCK, PHK, CHK1, MARK3, BRSK2, MELK, NUAK1, CK1, CK2, DRYK1A, PIM1, PAK4, MST2, GCK, MINK1, MLK1, MLK3, IRAK4, SRC, YES1, BTK, EPH-A2, HER4, VEG-FR
[8]
  logD at 12 h, 100 µM: 1.9

## CN1CCC(Nc2ccc3ncc(-c4cnn(-c5cccc(C#N)c5)c4)n3n2)CC1 [Compound 37]
[4]
  MLM % rem: 59%
P. falciparum [5]
  EC50: 255 nM
[6]
  HLM % rem: 70%
PfCDPK1
  IC50: 189 nM
[8]
  logD at 12 h, 100 µM: 2.7
